Assays:
mitochondrial complex I = test: Protein detection by Western blot in HAECs, mitochondrial complex I; type: cell-based, human; conditions: FIG. 3A, 3B
Protocol: (§1) Human aortic endothelial cells (HAECs) were purchased from Shanghai Shanghai Bioleaf Biotech Co., Ltd. Palmitic acid (PA) was purchased from SIGMA Company. A palmitic acid solution having a concentration of 500 μM was prepared by dissolving palmitic acid in water. A cell culture incubator was adopted to culture the cells in a temperature-constant, humidified, sterile condition. The cells were cultured in wells of culture plates at an atmosphere of 95% air and 5% CO2 at 37° C. in the incubator. The experiments were performed on different experimental groups of cells.
The HAECs that were previously cultured in a 6-well cell culture plate were divided into 3 different experimental groups, the control (Ctrl) group, the PA group, and the HT-HB+PA group. The cells of the HT-HB+PA group were applied with HT-HB in a concentration of 100 µM followed with an 24-hour incubation. […]
The medium for cell culture in the wells was removed. […] The supernatants were collected, and the proteins therein were quantified by bicinchoninic acid (BCA) assay, and normalized. […]
10 μg of the extracted proteins were subjected to gel electrophoresis with 10% acrylamide gel, and electrophoretic transferred onto a PVDF membrane, which were blocked, and incubated with a primary antibody at 4° C. overnight, free primary antibody was washed away. […] Target proteins were detected by chemiluminescence.

interleukin-6 (IL-6) = test: IL-6 mRNA level detection (RT-PCR) in HAECs; type: cell-based, human; conditions: FIG. 2
Protocol: as §1
The HAECs that were previously cultured in a 12-well cell culture plate were divided into 4 different experimental groups and respectively applied with HT-HB in different concentrations, 0 μM, 0 μM, 50 μM, 100 μM, all followed with an 24-hour incubation. Then, the last 3 groups of cells were respectively applied with 500 μM palmitic acid, the first was not, all followed with another 24-hour incubation. The detecting of mRNA levels corresponding to interleukin-6 (IL-6) was respectively carried out on each group of cells by using reverse transcription RNA and real-time quantitative polymerase chain reaction (PCR), and the specific method is as follows:
The medium for cell culture in the wells was removed. […] The concentration of the solution was measured by an ultraviolet spectrophotometer. […]

[1] = test system: Human aortic endothelial cells (HAECs); test: MTT assay, cell viability of HAECs; type: cell-based; conditions: FIG. 1
Protocol: as §1
The HAECs that were previously cultured in a 12-well cell culture plates were divided into 6 different experimental groups and respectively applied with HT-HB in different concentrations, 0 μM, 1 μM, 10 μM, 50 μM, 100 μM, and 200 μM, all followed with an 24-hour incubation. Then, each of the 6 groups of cells was further divided into two sub groups, one was applied with 500 µM palmitic acid, the other was not, all followed with another 24-hour incubation.
An MTT assay was performed to all groups of cells. […] The absorbance was measured at a wavelength of 490 nm in a spectrophotometer. The absorbance of this colored solution can be quantified by measuring at a certain wavelength (usually between 500 and 600 nm) by a spectrophotometer.

mitochondrial complex II = test: Protein detection by Western blot in HAECs, mitochondrial complex II; type: cell-based, human; conditions: 500 μM palmitic acid 24 h, vs control, FIG. 3A, 3B
Protocol: Human aortic endothelial cells (HAECs) were purchased from Shanghai Shanghai Bioleaf Biotech Co., Ltd. Palmitic acid (PA) was purchased from SIGMA Company. A palmitic acid solution having a concentration of 500 μM was prepared by dissolving palmitic acid in water. A cell culture incubator was adopted to culture the cells in a temperature-constant, humidified, sterile condition. The cells were cultured in wells of culture plates at an atmosphere of 95% air and 5% CO2 at 37° C. in the incubator. The experiments were performed on different experimental groups of cells. The HAECs that were previously cultured in a 6-well cell culture plate were divided into 3 different experimental groups, the control (Ctrl) group, the PA group, and the HT-HB+PA group. The cells of the HT-HB+PA group were applied with HT-HB in a concentration of 100 µM followed with an 24-hour incubation. Then, the cells of both the PA group and the HT-HB+PA group were applied with 500 μM palmitic acid, all followed with another 24-hour incubation. The protein detection was respectively carried out on each group of cells as follows. The medium for cell culture in the wells was removed. […] The supernatants were collected, and the proteins therein were quantified by bicinchoninic acid (BCA) assay, and normalized. […] Target proteins were detected by chemiluminescence.

CC(O)CC(=O)OCCc1ccc(O)c(O)c1 (stereo not shown) [HT-HB, 2-(3,4-dihydroxyphenyl)ethyl 3-hydroxybutanoate]
relative protein expression level of mitochondrial complex I (mitochondrial complex I; HT-HB 100 M 24 h, then 500 μM palmitic acid 24 h, vs PA group): significantly increasing the expression
mRNA level corresponding to IL-6 (interleukin-6 (IL-6); HAECs pretreated with HT-HB 100 M for 24 h, then 500 μM palmitic acid 24 h): significantly decreased
relative cell viability ([1]; HAECs not treated with palmitic acid, HT-HB 1 μM to 100 μM, vs cells without HT-HB (control)): higher viabilities
relative cell viability ([1]; HAECs pretreated with HT-HB 1 μM to 100 μM for 24 h, then 500 µM palmitic acid 24 h, vs palmitic acid treated cells without HT-HB): higher viabilities

CCCCCCCCCCCCCCCC(=O)O [palmitic acid, reference compound]
relative protein expression level of mitochondrial complex I (mitochondrial complex I; 500 μM palmitic acid 24 h, vs control): reducing the expression
increase of mRNA level corresponding to IL-6 (interleukin-6 (IL-6); HAECs, 500 μM palmitic acid 24 h, vs control group): about 10 times
relative protein expression level of mitochondrial complex II (mitochondrial complex II): reducing the expression
